In patent US20240300957A1, “TETRAZOLE-SUBSTITUTED ETHYL-SULFONE / SULFOXIMINE-PYRIDINE DERIVATIVES” (Boehringer Ingelheim Vetmedica GmbH, priority 2023, published 2024) one finds EC50 and mortality data, which are given here for twelve compounds.

Experiment [1] has as its system adult R. sanguineus ticks. Briefly: Contact activity against adult Rhipicephalus sanguineus (coated vial). Format: in vivo. The note with it: mortality at 48 hours post-treatment, 24° C., 95% relative humidity, read-out: EC50 (contact activity, percentage mortality). How it is done:
Screening Method to Test Contact Activity of Compounds of Formula (I), (Ia) or (Ib) Against Adult Rhipicephalus Sanguineus Compounds of formula (I), (Ia) and (Tb) formulated in 100% DMSO are diluted in a solution containing acetone and Triton X-100 (0.02%). The resulting formulation is used to coat the inner walls of glass scintillation vials and the filter paper covering the cap of the vial. Once dried, ten adult R. sanguineus ticks are added to the vials. The vials are incubated at 24° C., 95% relative humidity, and 12 hours of light/12 hours of dark until evaluation. Ticks are visually evaluated for mortality at 48 hours post-treatment. Compound efficacy at a given dose is expressed as percentage mortality. A dose response series is implemented to determine EC50 values.

The subject of experiment [2] is adult C. felis fleas. The experiment can be described thus: Ingestion activity against adult Ctenocephalides felis (artificial membrane feeding, bovine blood). Type of experiment: in vivo. The note with it: bovine blood via artificial membrane, motility 48 h post treatment, read-out: EC50 (ingestion activity, % motility reduction). How it is done: Example 6: Screening Method to Test Ingestion Activity of Compounds of Formula (I), (Ia) or (Ib) Against Adult Ctenocephalides felis Compounds of formula (I), (Ia) and (Ib) dissolved in 100% DMSO are added to bovine blood and offered via an artificial membrane feeding system to adult C. felis fleas. The motility of fleas is then visually inspected 48 h post treatment. Efficacy is expressed in % motility reduction compared to controls containing blood treated with DMSO only. A dose response series is implemented to determine EC50 values.

The subject of experiment [3] is Plutella xylostella. The experiment can be described thus: Insecticidal test on Plutella xylostella (Chinese cabbage seedling dip). Conditions: 144 h, 6 days after dip treatment, 25° C., read-out: activity level (corrected mortality rate). Type of experiment: in vivo. Here is the method:
Example 14: Insecticidal Test on Plutella xylostella
The compounds of formula (I), (Ia) and (Ib) of the present invention or salts thereof are separately dispersed in water and diluted to 50 ppm. Ten adults of Plutella xylostella are released onto Chinese cabbage seedlings and allowed to lay eggs thereon. 2 days after the release of the adults, the seedling is dipped in the dispersion for about 30 seconds. After air dried, the seedling is kept in a room at 25° C. 6 days after the dip treatment, the numbers of the dead and alive insects are counted. The corrected mortality rate is calculated according to the following formula and the insecticidal activity was evaluated according to the following criteria.
[formula] • A: the corrected mortality rate is 100% • B: the corrected mortality rate is 90 to 99% • C: the corrected mortality rate is 80 to 89% • D: the corrected mortality rate is 50 to 79%

The subject of experiment [4] is 3rd-instar nymphs of Laodelphax striatellus. Briefly: Insecticidal test on Laodelphax striatellus (rice seedling dip). Format: in vivo. The note with it: 192 h, 8 days after inoculation, 25° C., read-out: activity level (corrected mortality rate).
The test system of experiment [5] is adult Ctenocephalides felis fleas. Briefly: Contact activity against adult Ctenocephalides felis (coated pipe cleaner in vial). Type of experiment: in vivo. Conditions: adult C. felis, mortality at 72 hours post-treatment, 22° C., 80% relative humidity, read-out: EC50 (contact activity, percentage mortality). Here is the method:
Example 4: Screening Method to Test Contact Activity of Compounds of Formula (I), (Ia) or (Ib) Against Adult Ctenocephalides felis
Compounds of formula (I), (Ia) and (Ib) dissolved in 100% DMSO are diluted in acetone to a desired concentration. The resulting formulation is used to coat the fibers of a 0.5-inch-long piece of pipe cleaner placed in a glass scintillation vial. The vial is capped with a rubber gasket and filter paper insert. After the acetone has evaporated, ten adult Ctenocephalides felis fleas are added to each vial. The vials are then incubated at 22° C., 80% relative humidity, and 12 hours of light/12 hours of dark until a visual evaluation for mortality is performed at 72 hours post-treatment. Compound efficacy at a given dose is expressed as percentage mortality and adjusted to remove background mortality observed in control vials containing DMSO only. A dose response series of treated vials is implemented to determine EC50 values.

The test system of experiment [6] is 2nd-instar larvae of Spodoptera litura. Briefly: whole plant or invertebrate. Conditions: in Brassica oleracea, foliar, 192 h, read-out: activity level (corrected mortality rate).

A value given as a limit tells only on which side of the number the result lay.

Regarding `CCS(=O)(=O)c1cc(-c2nnnn2C2CC2)cnc1-c1nc2cc(C(F)(F)C(F)(F)F)nnc2n1C` [Compound 1, 6-[5-(1-cyclopropyltetrazol-5-yl)-3-ethylsulfonyl-2-pyridyl]-7-methyl-3-(1,1,2,2,2-pentafluoroethyl)imidazo[4,5-c]pyridazine], the results for the 50% effective concentration (EC50) in experiment [1] and in experiment [2] were 10 to 100 µM and below 10 µM, respectively. Further, the mortality at 50 ppm in experiment [3] and in experiment [4] was 100% throughout.
Regarding `CCS(=O)(=O)c1cc(-n2nnnc2C2CC2)cnc1-c1nc2cc(C(F)(F)C(F)(F)F)nnc2n1C` [Compound 2, 6-[5-(5-cyclopropyltetrazol-1-yl)-3-ethylsulfonyl-2-pyridyl]-7-methyl-3-(1,1,2,2,2-pentafluoroethyl)imidazo[4,5-c]pyridazine], in experiment [2], the EC50 lay within 10 to 100 µM.
For `CCS(=O)(=O)c1cc(-c2nnnn2C)cnc1-c1nc2cc(C(F)(F)C(F)(F)F)nnc2n1C` [Compound 4], the EC50 in experiment [2] was below 10 µM. The mortality at 50 ppm in experiment [4] stood at 100%.
For `CCn1nnnc1-c1cnc(-c2nc3cc(C(F)(F)C(F)(F)F)nnc3n2C)c(S(=O)(=O)CC)c1` [Compound 6], the EC50 in experiment [2] is below 10 µM.
Regarding `CCS(=O)(=O)c1cc(-c2nnn(C)n2)cnc1-c1nc2cc(C(F)(F)C(F)(F)F)nnc2n1C` [Compound 7, 6-[3-ethylsulfonyl-5-(2-methyltetrazol-5-yl)-2-pyridyl]-7-methyl-3-(1,1,2,2,2-pentafluoroethyl)imidazo[4,5-c]pyridazine], the EC50 was below 10 µM in experiment [5], 10 to 100 µM in experiment [1] and 10 to 100 µM in experiment [2].
For `CCS(=O)(=O)c1cc(-c2nnn(C)n2)cnc1-c1ncc(C(=O)NCC(F)(F)F)n1C` [Compound 8], the EC50 in experiment [2] is 10 to 100 µM.
Turning to `CCS(=O)(=O)c1cc(-c2nnn(C)n2)cnc1-c1nc2cc(S(=O)(=O)C(F)(F)F)nnc2n1C` [Compound 9], the EC50 in experiment [2] is below 10 µM. The mortality at 50 ppm in experiment [3], in experiment [4] and in experiment [6] was 100% each time.
As for `CCS(=O)(=O)c1cc(-c2nnn(C(C)C)n2)cnc1-c1nc2cc(C(F)(F)C(F)(F)F)nnc2n1C` [Compound 10], the half-maximal effective concentration (EC50) in experiment [1] is below 10 µM. For the same compound, the mortality at 50 ppm in experiment [3] and in experiment [4] was 100% throughout.
In the case of `CCS(=O)(=O)c1cc(-n2nnnc2C)cnc1-c1nc2cc(C(F)(F)C(F)(F)F)nnc2n1C` [Compound 12], the EC50 in experiment [2] lay in the range of 10 to 100 µM.
As for `CCS(=O)(=O)c1cc(-c2nnn(C)n2)cnc1-c1nc2cc(C(F)(F)C(F)(F)F)cnc2n1C` [Compound 14], the EC50 in experiment [5] was 10 to 100 µM; in experiment [1], 10 to 100 µM; in experiment [2], below 10 µM. Further, the mortality at 50 ppm in experiment [3] and in experiment [6] was 100% each time.
Regarding `CCS(=O)(=O)c1cc(-c2nnnn2C)cnc1-c1nc2cc(C(F)(F)C(F)(F)F)cnc2n1C` [Compound 15], in experiment [2], the EC50 is below 10 µM. For the same compound, in experiment [3], the mortality at 50 ppm was found to be 100%.
For the compound `CCS(=O)(=O)c1cc(-c2nnnn2-c2ccccc2)cnc1-c1nc2cc(C(F)(F)C(F)(F)F)nnc2n1C` [Compound 16], the mortality at 50 ppm in experiment [3] was found to be 100%.

Broadly, the EC50 is the concentration that produces a half-maximal response. One may read the mortality as the share of the test organisms that died.
